Where a SMILES comes first, the peptide text is derived from it. Bridges are numbered along the chain shown (N, C = ends). [ ]: non-standard residue; d: D form. Asu = N[C@@H](CCCCCC(=O)O)C(=O)O
System: Male rats
Experiment: Assay method for serum calcium reducing activity (potency against Research Standard B)
Assay type: in vivo, rat
Details: intravenous injection 0.2 ml, serum calcium 1 hour after injection, versus Research Standard B
Procedure: The assay method for serum calcium reducing activity, the carrier and developing system for thin layer chromatography and conditions for amino acid analysis are as follows:
Sample is diluted adequately with 0.1 N sodium acetate - 0.1% albumin solution. Male rats are subjected individually to intravenous injection with 0.2 ml. of the respective diluted solutions. After 1 hour, all the rats are killed to obtain their respective blood, and serum calcium value of each blood sample is determined by atomic absorption spectrophotomery. On the other hand, Research Standard B, which is an extract obtained from the thyroid gland of the hog, is diluted so as to give dilutions of 2.5, 5, 10 and 20 MRC mU/0.2 ml. respectively. Male rats are subjected to intravenous injection with 0.2 ml. of the respective diluted solutions. Following the same procedure as above, the serum calcium value of the rats is determined one hour after injection. From the potency of the corresponding Research Standard, the potency of the calcitonin in the sample is determined.

## CC(C)C[C@H](NC(=O)[C@H](CCCCN)NC(=O)CNC(=O)[C@H](CC(C)C)NC(=O)[C@@H](NC(=O)[C@@H]1CCCCCC(=O)N[C@@H](CO)C(=O)N[C@@H](CC(N)=O)C(=O)N[C@@H](CC(C)C)C(=O)N[C@@H](CO)C(=O)N[C@@H]([C@@H](C)O)C(=O)N1)C(C)C)C(=O)N[C@@H](CO)C(=O)N[C@@H](CCC(N)=O)C(=O)N[C@@H](CCC(=O)O)C(=O)N[C@@H](CC(C)C)C(=O)N[C@@H](Cc1c[nH]cn1)C(=O)N[C@@H](CCCCN)C(=O)N[C@@H](CC(C)C)C(=O)N[C@@H](CCC(N)=O)C(=O)N[C@H](C(=O)N[C@@H](Cc1ccc(O)cc1)C(=O)N1CCC[C@H]1C(=O)N[C@@H](CCCNC(=N)N)C(=O)N[C@H](C(=O)N[C@@H](CC(=O)O)C(=O)N[C@H](C(=O)NCC(=O)N[C@@H](C)C(=O)NCC(=O)N[C@H](C(=O)N1CCC[C@H]1C(N)=O)[C@@H](C)O)C(C)C)[C@@H](C)O)[C@@H](C)O [Example 1] (SNLST[Asu]VLGKLSQELHKLQTYPRTDVGAGTP-NH2; lactam N-6)
  potency of the purified product (serum calcium reducing activity): 3450 MRC U/mg.

Reference: US4086221A, “Polypeptides and process for producing the same” (Toyo Jozo Kabushiki Kaisha, priority 1975, dated 1978)
